Data taken from patent publication US20230331694A1, “FAP-ACTIVATED COMPOUNDS FOR TREATMENT OF CANCER” (The Johns Hopkins University, priority 2020, published 2023).

Legend:
DPPIV = target: T1, DPPIV (Homo sapiens, UniProt P27487); assay: LC-MS assay of niclosamide production from prodrug with DPPIV; type: biochemical; settings: 24 hrs
T1 construct: purchased R&D Systems
Experimental: (§1) In vitro Characterization of Enzymatic Activation Kinetics and FAP-specific Cellular UptakelCytotoxicity: Kinetics of compound activation by FAP is performed as previously described (Aggarwal et al. Biochemistry 47, 1076-1086 (2008); Denmeade et al. Sci TranslMed 4, 140ra186 (2012)). Briefly, increasing concentrations of the test compound (0-10 µM) are incubated with rhFAP, rhDPPIV, or rhPREP [20 nM] (R&D Systems) at 37° C. while shaking. Aliquots are taken to determine concentrations of the test compound and active drug compound at time points ranging from 0-24 hrs using the LCMS method described above in Example 4. Kinetic constants (Km and kcat) are calculated on the basis of the rate of hydrolysis (v) during the linear phase using Michaelis-Menten plots (v vs [S]) with nonlinear regression analysis. Cellular uptake in the presence or absence of rhFAP is determined in cell lysates using the same methodology. Cytotoxicity is determined via MTT in the presence or absence of rhFAP and/or a FAP-specific inhibitor (Jansen et al. J Med Chem 57, 3053-3074 (2014).

PREP = target: T2, PREP (Homo sapiens, UniProt P48147); assay: LC-MS assay of niclosamide production from prodrug with PREP; type: biochemical; settings: 24 hrs
T2 construct: purchased R&D Systems
T2 sequence (P48147 1-710): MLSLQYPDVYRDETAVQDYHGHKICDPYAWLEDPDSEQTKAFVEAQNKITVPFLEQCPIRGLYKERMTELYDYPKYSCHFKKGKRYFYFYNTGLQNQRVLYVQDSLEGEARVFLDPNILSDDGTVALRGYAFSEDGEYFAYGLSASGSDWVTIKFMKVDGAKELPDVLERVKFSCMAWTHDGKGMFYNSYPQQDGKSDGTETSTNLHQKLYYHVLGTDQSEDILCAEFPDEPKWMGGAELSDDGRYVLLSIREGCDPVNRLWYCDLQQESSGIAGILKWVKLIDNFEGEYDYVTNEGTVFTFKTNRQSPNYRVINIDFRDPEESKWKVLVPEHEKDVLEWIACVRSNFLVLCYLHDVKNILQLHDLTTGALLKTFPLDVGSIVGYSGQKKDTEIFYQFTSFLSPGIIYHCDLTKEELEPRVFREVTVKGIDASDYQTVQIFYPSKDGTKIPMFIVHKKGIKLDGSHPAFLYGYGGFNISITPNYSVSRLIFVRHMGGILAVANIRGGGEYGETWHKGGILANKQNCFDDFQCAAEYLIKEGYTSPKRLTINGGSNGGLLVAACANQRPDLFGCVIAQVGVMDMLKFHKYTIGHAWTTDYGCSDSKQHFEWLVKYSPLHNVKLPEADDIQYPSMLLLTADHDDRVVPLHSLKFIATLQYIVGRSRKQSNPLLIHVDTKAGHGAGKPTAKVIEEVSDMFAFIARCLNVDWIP
Experimental: as §1

Myc-CaP-CR tumors = assay: Abiraterone-resistant CRPC tumor model (Myc-CaP-CR) in vivo
Experimental: Animals were treated with either abiraterone at 10 mg/kg by daily oral gavage alone or together with Compound 1 at 50 mg/kg IV on d0 and d4. Toxicity was monitored by measuring body weight and body score (i.e., appearance, lethargy, etc.).

FAP [1] = target: T3, FAP (Homo sapiens, UniProt Q12884); assay: Kinetics of FAP-dependent activation in vitro +/- BSA (HPLC); type: biochemical
T3 sequence (Q12884 1-760): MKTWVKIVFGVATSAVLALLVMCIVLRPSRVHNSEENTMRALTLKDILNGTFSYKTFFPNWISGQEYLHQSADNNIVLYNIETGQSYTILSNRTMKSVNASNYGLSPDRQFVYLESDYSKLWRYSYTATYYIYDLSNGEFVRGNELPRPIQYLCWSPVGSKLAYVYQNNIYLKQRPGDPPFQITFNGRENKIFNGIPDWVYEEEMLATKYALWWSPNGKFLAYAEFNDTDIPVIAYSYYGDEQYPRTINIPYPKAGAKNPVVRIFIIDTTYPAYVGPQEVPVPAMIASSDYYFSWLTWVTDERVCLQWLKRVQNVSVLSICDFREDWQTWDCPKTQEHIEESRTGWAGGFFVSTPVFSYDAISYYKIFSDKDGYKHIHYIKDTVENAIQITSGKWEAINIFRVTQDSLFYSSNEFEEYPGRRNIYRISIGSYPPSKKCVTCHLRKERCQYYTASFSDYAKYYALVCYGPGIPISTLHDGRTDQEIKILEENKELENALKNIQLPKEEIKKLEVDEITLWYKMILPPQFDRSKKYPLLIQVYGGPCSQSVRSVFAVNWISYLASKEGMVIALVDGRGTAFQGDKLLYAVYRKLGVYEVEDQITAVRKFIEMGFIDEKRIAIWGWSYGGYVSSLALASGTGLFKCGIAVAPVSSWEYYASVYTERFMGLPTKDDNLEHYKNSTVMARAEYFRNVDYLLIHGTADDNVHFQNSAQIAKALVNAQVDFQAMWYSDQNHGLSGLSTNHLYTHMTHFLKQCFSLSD
Experimental: Compound 1 was incubated in Buffer (50 mM Tris-HCl, pH 7.4; 150 mM NaCI) +/-0.4% BSA in glass vials, mixing at 37° C. Aliquots were taken at indicated time points and the presence of Compound 1 (prodrug) and Niclosamide (active compound) were quantified via HPLC.

LNCaP cells = assay: Seahorse XF Cell Mito Stress Test; type: cell-based
Experimental: A mitochondrial stress test assay was performed using the Agilent Seahorse XF Cell Mito Stress Test Kit (catalog no. 103015-100), a widely-used assay for assessing mitochondrial function. Compound 1 or niclosamide (1 µM) was incubated overnight at 37° C. shaking, with or without FAP (20 nM) in Seahorse Media. This mixture was added to LNCaP cells (60 k cells) the next day, immediately prior to starting the assay (0.5 µM final concentration).

CWR22-H tumors = assay: Castration-resistant CWR22-H tumors in castrated male NSG mice; type: in vivo
Experimental: Castrated male NSG mice were inoculated with castration-resistant CWR22-H tumors in 50% Matrigel. When tumors reached ~0.2 cc, treatment with Compound 1 (40 mg/kg) via intraperitoneal (I.P.) injection was initiated. Tumor volumes and body weights were monitored 2x/wk. […] Treatment was well-tolerated as documented by weight loss of <20%.

FAP [2] = target: T3, FAP; assay: LC-MS assay of FAP-dependent production of niclosamide from prodrug; type: biochemical; parameters: purchased R&D Systems
Experimental: as §1

[3] = Pharmacokinetics: plasma, liver, kidney, smooth muscle levels after Compound 1 dosing
Experimental: (§2) Column: Luna 2.5u C18, 100 mm ×2.5 mm (Phenomenex 00D-4446-B0). Mobile phase: A = 0.5% acetonitrile/H2O/0.1% formic acid; B= 95% acetonitrile/H2O/0.1% formic acid; Flow = 150 µL/min.

[4] = test system: SkCaP-1 (human PCa xenograft); assay: SkCaP-1 human PCa xenograft in NSG mice; type: in vivo; settings: 30 mg/kg i.p. daily vs DMSO control (FIG. 4)
Experimental: Intact male NSG mice (3-4 per group) bearing SkCaP-1 (human PCa xenograft) were treated with 30 mg/kg Compound 4 (a tasquinimod compound) i.p. daily, or a control (DMSO).

FAP [5] = target: T3, FAP; assay: FAP-dependent activation of Compound 4 in vitro (HPLC); type: biochemical; parameters: purchased R&D Systems; settings: buffer +/- rhFAP (20 nM) overnight (~16 hrs), 37° C., HPLC (FIG. 10)
Experimental: Compound 4 was incubated in buffer +/- rhFAP (20 nM) overnight (~16 hrs), mixing at 37° C. Aliquots taken at indicated time points and the presence of Compound 4 (prodrug) and Tasquinimod (TasQ) were quantified via HPLC.

[6] = test system: panel of benign and malignant cells; assay: MTT assay, potency of niclosamide against a panel of cells; type: cell-based; settings: all cells tested (FIG. 3A)
Source text: FIGS. 3A-3D show characterization data for a compound disclosed herein (Compound 1).

[7] = test system: mammalian cells such as mCRPCs, TAMs, MSCs, and CAFs; settings: all cells, including mammalian cells; read-out: LC50 (the source's name); cited from earlier work
[8] = in vivo, 40 mg/kg
Experimental: as §2

T1 sequence (P27487 whole entry): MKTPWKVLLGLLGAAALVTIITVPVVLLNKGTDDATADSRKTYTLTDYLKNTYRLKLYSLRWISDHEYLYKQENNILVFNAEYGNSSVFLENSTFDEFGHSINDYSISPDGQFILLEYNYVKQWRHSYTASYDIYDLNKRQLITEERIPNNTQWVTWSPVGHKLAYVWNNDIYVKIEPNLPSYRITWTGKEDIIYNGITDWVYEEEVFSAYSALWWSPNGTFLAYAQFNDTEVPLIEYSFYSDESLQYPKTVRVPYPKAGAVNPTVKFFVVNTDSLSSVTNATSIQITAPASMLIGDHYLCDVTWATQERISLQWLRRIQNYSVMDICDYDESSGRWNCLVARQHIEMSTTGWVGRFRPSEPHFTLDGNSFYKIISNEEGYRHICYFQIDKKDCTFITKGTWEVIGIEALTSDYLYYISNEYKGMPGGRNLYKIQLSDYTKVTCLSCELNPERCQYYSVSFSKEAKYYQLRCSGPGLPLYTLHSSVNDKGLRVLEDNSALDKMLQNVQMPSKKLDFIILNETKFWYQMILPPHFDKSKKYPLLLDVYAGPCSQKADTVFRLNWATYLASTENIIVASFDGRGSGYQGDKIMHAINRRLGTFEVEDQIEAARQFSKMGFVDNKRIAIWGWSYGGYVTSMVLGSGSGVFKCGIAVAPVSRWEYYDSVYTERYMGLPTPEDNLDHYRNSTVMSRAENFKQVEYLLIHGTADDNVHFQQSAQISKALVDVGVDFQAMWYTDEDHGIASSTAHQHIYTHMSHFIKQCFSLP

With O=C(Nc1ccc([N+](=O)[O-])cc1Cl)c1cc(Cl)ccc1OCc1ccc(NC(=O)C2CC(F)(F)CN2C(=O)CNC(=O)c2ccnc3ccccc23)cc1 (stereo not drawn) [Compound 1] the “production of active niclosamide” value (DPPIV) was “no production observed”, the “production of active niclosamide” value (PREP) was “no production observed” and the “toxicity (body weight and body score)” value (Myc-CaP-CR tumors; Compound 1 50 mg/kg IV d0 and d4 together with abiraterone 10 mg/kg (FIG. 3D)) was “no evidence of toxicity”. The anti-tumor efficacy (Myc-CaP-CR tumors; Compound 1 50 mg/kg IV d0 and d4 together with abiraterone 10 mg/kg daily oral gavage (FIG. 3C)) was “significant anti-tumor efficacy”, the “effect of BSA on production of the active compound” value (FAP [1]; 0.4% BSA) was “BSA inhibits production of the active compound” and the “prodrug and active compound over time” value (FAP [1]; buffer pH 7.4, 37° C., HPLC (FIG. 5)) was “time-dependent increase in the active compound and concomitant decrease in the prodrug over time”. For the same compound, the “baseline ECAR” value (LNCaP cells; activated by FAP) was “already at maximum”, the “oxygen consumption rate (OCR), mitochondrial uncoupling” value (LNCaP cells; activated by FAP (20 nM) overnight, 0.5 µM final (FIG. 6)) was “uncouples mitochondria” and the “extracellular acidification rate (ECAR) on oligomycin addition” value (LNCaP cells; activated by FAP (FIG. 7)) was “does not change with the addition of oligomycin”. The non-mitochondrial respiration (LNCaP cells; activated by FAP, after rotenone and antimycin A) was “no change in non-mitochondrial respiration”, the weight loss (CWR22-H tumors; 40 mg/kg daily IP) was < 20% and the “anti-tumor activity (tumor volume)” value (CWR22-H tumors; 40 mg/kg daily IP (FIG. 8)) was “Anti-tumor activity was observed”. The “production of active niclosamide” value (FAP [2]; absence of enzyme, 24 hrs) was “no production observed”, the “increase in active niclosamide” value (FAP [2]; with FAP, over 24 hrs (FIG. 3B)) was ~ 20 fold and the “plasma level as % of the IV dose” value ([3]; 40 mg/kg IP) was ~ 50%. The “kidney level as % of the IV dose” value ([3]; 40 mg/kg IP, at ~4 hrs) was ~ 30%, the “liver level as % of the IV dose” value ([3]; 40 mg/kg IP, at ~4 hrs) was ~ 50% and the “converted to niclosamide (kidney)” value ([3]; Compound 1 administered IV or IP) was < 10%. For the same compound, the “stability of the prodrug as a systemic therapy” value ([3]; in vivo, from tissue niclosamide levels) was “good stability”, the concentration at 1 hr ([3]; kidney, intravenous, 40 mg/kg) was ~50 µM and the concentration at 1 hr ([3]; kidney, oral, 40 mg/kg) was ~1 µM. The Kp at 1 hr ([3]; liver, intravenous, 40 mg/kg) was 10 to 15, the concentration at 1 hr ([3]; liver, intravenous, 40 mg/kg) was ~100 µM and the concentration at 1 hr ([3]; liver, oral, 40 mg/kg) was ~10 µM. The bioavailability ([3]; liver, po, 40 mg/kg) was ~10%, the half-life ([3]; plasma, intravenous, 40 mg/kg) was 3 to 4 h and the Cmax ([3]; plasma, iv, 40 mg/kg) was ~7 µM. For the same compound, the Cmax ([3]; plasma, po, 40 mg/kg) was ~0.4 µM and the bioavailability ([3]; plasma, po, 40 mg/kg) was 5 to 10%.

For COc1cccc2c1c(OCc1ccc(NC(=O)C3CC(F)(F)CN3C(=O)CNC(=O)c3ccnc4ccccc34)cc1)c(C(=O)N(C)c1ccc(C(F)(F)F)cc1)c(=O)n2C (stereo not drawn) [Compound 4], the “tumor growth (tumor volume)” value [4] was “decreases tumor growth compared to the control” and the “FAP-dependent activation to tasquinimod” value (FAP [5]) was “confirm FAP-dependent activation”.

For O=C(Nc1ccc([N+](=O)[O-])cc1Cl)c1cc(Cl)ccc1O [Niclosamide, niclosamide], the IC50 [6] is given as < 500 nM, the CC50 [7] is given as < 1000 nM and the “niclosamide in liver as % of Compound 1 concentrations” value [8] is given as 25-50%. The “niclosamide in plasma as % of Compound 1 dose” value [8] was < 10%, the “niclosamide in smooth muscle as % based on liver concentrations” value [8] was < 1% and the “niclosamide in smooth muscle as % of administered dose based on plasma concentrations” value [8] was 5-10%. For the same compound, the “niclosamide level in plasma” value [8] was < 1 µM and the “niclosamide level in smooth muscle” value [8] was < 1 µM.
